Experimental data from US8491897B2, “Treatment of neuropathic pain using anti-thrombospondin antibodies” (The Board of Trustees of the Leland Stanford Junior …, priority 2007, dated 2013).
Entries after “also recorded” stand apart in the source; their conditions may differ.

What was measured:
RGCs [1] = assay: Inhibition of TSP-, astrocyte/ACM- or Hevin-induced synapse formation in RGC cultures; format: cell-based, rat
Method: RGCs were purified by sequential immunopanning to greater than 99.5% purity from P5 Sprague-Dawley rats (Simonsen Labs, Gilroy, Calif.), as previously described (Barres et. al. (1988) Neuron 9, 791). Approximately 30,000 RGCs were cultured per well in 24-well plates (Falcon) on glass (Assistant) or Aclar 22C (Allied Signal) coverslips coated with poly-D-lysine (10 μg/ml) followed by laminin (2 μg/ml). RGCs were cultured in 600 μl of serum-free medium, modified from Bottenstein and Sato (1979), containing Neurobasal (Gibco), bovine serum albumin, selenium, putrescine, triiodo-thyronine, transferrin, progesterone, pyruvate (1 mM), glutamine (2 mM), CNTF (10 ng/ml), BDNF (50 ng/ml), insulin (5 μg/ml), and forskolin (10 μM). Recombinant human BDNF and CNTF were generously provided by Regeneron Pharmaceuticals.
Purified human platelet TSP1 was from either Sigma or Haematologic Technologies with similar results. Recombinant TSP2 was purified from serum-free medium conditioned by baculovirus-infected insect cells expressing mouse TSP2. Since purified TSP1 is readily available, we used this as the source of TSP in our experiments unless otherwise stated TSPs were used at a concentration of 5 μg/ml unless otherwise specified. RCGs were cultured for 4 days to allow robust process outgrowth and then cultured with TSPs for an additional 6 days. All other reagents were obtained from Sigma.
For preparation of ACM, confluent cultures of astrocytes in 10 cm dishes were washed 3× in PBS and fed with 10 mls RGC medium (without CNTF, BDNF or forskolin). ACM was harvested after 4-6 days of conditioning, filtered through a 0.2 μm syringe filter and concentrated 10× through a 5 KD molecular weight cut-off centrifuge concentrator (Millipore), unless otherwise indicated. ACM was used at a final concentration of 5× unless otherwise indicated. RCGs were cultured for 4 days to allow robust process outgrowth and then cultured with ACM or an astrocyte-feeding layer for an additional 6 days.
For synapse quantification, cultures were fixed for 7 min in 4% paraformaldehyde (PFA), washed 3× in phosphate buffered saline (PBS) and blocked in 100 μL of blocking buffer (50% Antibody Buffer (0.5% bovine serum albumin, 0.5% Triton X-100, 30 mM NaPO4, 750 mM NaCl, 5% normal goat serum, and 0.4% NaN3, pH 7.4), 50% goat serum (NGS), 0.1% Triton-X) for 30 min. After blocking, cover slips were washed 3× in PBS and 100 μL of primary antibody solution was added to each cover slip, consisting of rabbit anti-synaptotagmin (cytosolic domain, Synaptic Systems) and mouse anti-PSD-95 (6G6-1C9 clone, Affinity Bio Reagents) diluted 1:500 in antibody buffer. Coverslips were incubated overnight at 4° C., washed 3× in PBS, and incubated with 100 μL of secondary antibody solution containing Alexa-594 conjugated goat anti-rabbit and Alexa-488 conjugated goat anti-mouse (Molecular Probes) diluted 1:1000 in antibody buffer. Following incubation for 2 h at room temperature, coverslips were washed five times in PBS and mounted in Vectashield mounting medium with DAPI (Vector Laboratories Inc) on glass slides (VWR Scientific). For presynaptic activity assay, rabbit synaptotagmin antiserum was generated by immunization with a peptide corresponding to the N-terminal luminal portion of synaptotagmin. This serum was added at 1:500 to live cultures and incubated for 6 hours. Cells were then washed 3× in DPSB, fixed and stained as above, except for the omission of synaptotagmin antibody from the primary antibody solution.
Mounted coverslips were imaged using Nikon Diaphot and Eclipse epifluorescence microscopes (Nikon). Healthy cells that were at least 2 cell diameters from their nearest neighbor were identified and selected at random by eye using DAPI fluorescence. 8-bit digital images of the fluorescence emission at both 594 nm and 488 nm were recorded for each selected cell using a cooled monochrome CCD camera and SPOT image capture software (Diagnostic Instruments, Inc). […]

[2] = Weight gain and general health of injected pups; format: in vivo, mice; conditions: 400 mg/kg daily or 200 mg/kg three times a day i.p., vs saline
Method: In three independent experiments, two litters of wild type mice (n=3×12, FVB background) were given daily intraperitoneal injections of either a single dose of 400 mg/kg of GBP (Sigma-Aldrich) or a matching volume of saline solution (PBS). In one experiment the mice were injected with 200 mg/kg GBP (n=6) three times a day and the controls received the same volume of saline solution (n=6). […] Samples were blinded during analysis of the barrel cortex plasticity.

naive rats = assay: TSP4-induced behavioral hypersensitivity in naive rats (paw withdrawal threshold, von Frey); format: in vivo, rat; conditions: 1 mg/rat bolus i.t., three days after TSP4 (45 ug/rat)
RGCs [3] = conditions: culture media containing GBP
RGCs [4] = test system: RGCs

SMILES: NCC1(CC(=O)O)CCCCC1 [Gabapentin, 1-(aminomethyl)cyclohexaneacetic acid]
- effect on SD2-induced synapse formation (RGCs [1]): completely inhibited synapse formation; also recorded: inhibited TSP induced synapse formation; also recorded: blocks TSPs synaptogenic effect; also recorded: blocks the synaptogenic activity of SD2
- effect on SD2-induced synapses (RGCs [1]): synapse formation was not affected; also recorded: does not decrease synapse numbers
- effect on already formed synapses (synapse number) (RGCs [1]): did not decreased the synapse number
- effect on synapse formation induced by Hevin (RGCs [1]): does not inhibit the synapse formation; also recorded: did not affect
- effect on synaptogenic effect of TSP2 EGF-like domains (RGCs [1]): diminished its synaptogenic effect
- effect on TSP and astrocyte-induced synapse formation (RGCs [1]; 32 μM): strongly inhibited both TSP and astrocyte-induced synapse formation
- effect on synapse formation induced by TSP1 or TSP2 EGF-like domains (RGCs [1]; 32 μM): blocked the synaptogenic effect; also recorded: reduces the number of synapses formed by RGCs down to background levels
- effect on synaptogenic effect of astrocyte conditioned media (ACM) (RGCs [1]; 32 μM): diminished the synaptogenic effect of both rat and mouse ACM; also recorded: able to block all of ACMs synaptogenic activity
- weight gain and general health [2]: showed no differences
- effect on TSP4-induced behavioral hypersensitivity (naive rats): blocked the pain-inducing effects of TSP4
- RGC survival (RGCs [3]): 66.5±4.1%
- toxicity to the RGCs (RGCs [4]): not toxic
